Columns and labels:
[1] = Intrinsic clearance in Beagle dog at 0.25 mg/kg, iv or 0.5 mg/kg, po; format: ADME, organism-based, Canis lupus familiaris; settings: in vivo
[2] = Protein binding in Wistar Han rat plasma; format: ADME, cell-free; settings: read-out: PPB (converted)
[3] = Drug recovery in rat urine after 24 hrs; format: ADME; settings: read-out: Drug recovery
[4] = target: Dual 3',5'-cyclic-AMP and -GMP phosphodiesterase 11A (Homo sapiens, UniProt Q9HCR9); test: Inhibition of PDE11 (unknown origin)
Homo sapiens = organism: Homo sapiens; test: Selectivity ratio of IC50 for N-terminal His6-tagged recombinant full length human p110alpha/untagged recombinant full length human p85alpha expressed in baculovirus infected Sf21 insect cells to IC50 for N-terminal His6-tagged recombinant full length human p110delta/untagged recombinant full length human p85alpha expressed in baculovirus infected Sf21 insect cells
[5] = target: PI3-kinase p110-alpha/p85-alpha (Homo sapiens, UniProt P42336); test: Inhibition of N-terminal His6-tagged recombinant full length human p110alpha/untagged recombinant full length human p85alpha expressed in baculovirus infected Sf21 insect cells using PIP2 as substrate preincubated for 15 mins followed by substrate addition and measured after 1 hr by HTRF assay
[6] = Toxicity in Beagle dogs assessed as vascular injury at 25 mg/kg administered for 8 days; format: organism-based, Canis lupus familiaris; settings: dog, in vivo, 192 h
[7] = Volume of distribution in Beagle dog; format: ADME, Canis lupus familiaris; settings: in vivo
[8] = Intrinsic clearance in Wistar Han rat at 0.5 mg/kg, iv or 1 mg/kg, po; format: ADME, organism-based; settings: in vivo
[9] = fCmax in Beagle dog at 25 mg/kg administered for 8 days; format: ADME, organism-based, Canis lupus familiaris; settings: in vivo, 192 h
[10] = Toxicity in Beagle dog assessed as decrease in basophil count at 25 mg/kg administered for 8 days; format: organism-based, Canis lupus familiaris; settings: in vivo, 192 h
[11] = fAUC in Beagle dog at 25 mg/kg administered for 8 days; format: ADME, organism-based, Canis lupus familiaris; settings: in vivo, 192 h
Rattus norvegicus = test: Hemodynamic activity in telemetered rat assessed as effect on heart rate at 60 mg/kg; format: ADME, organism-based; settings: in vivo
[12] = Protein binding in human plasma; format: ADME, cell-free; settings: read-out: PPB (converted)
[13] = Half-life in Beagle dog; format: ADME, Canis lupus familiaris; settings: in vivo
[14] = Plasma clearance in Beagle dog at 0.25 mg/kg, iv or 0.5 mg/kg, po; format: ADME, organism-based, Canis lupus familiaris
[15] = fAUC in rat at 750 mg/kg administered for 4 days; format: ADME, organism-based; settings: in vivo, 96 h
Phosphodiesterase 3 = Phosphodiesterase 3 (Homo sapiens, UniProt Q14432+Q13370); test: Inhibition of PDE3 (unknown origin); format: protein assay
[16] = Toxicity in Beagle dog assessed as decrease in RBC count at 25 mg/kg administered for 8 days; format: organism-based, Canis lupus familiaris; settings: in vivo, 192 h
[17] = target: High affinity cAMP-specific and IBMX-insensitive 3',5'-cyclic phosphodiesterase 8A (Homo sapiens, UniProt O60658); test: Inhibition of PDE8 (unknown origin)
[18] = Plasma clearance in Wistar Han rat at 0.5 mg/kg, iv or 1 mg/kg, po; format: ADME, organism-based

Sequence of High affinity cAMP-specific and IBMX-insensitive 3',5'-cyclic phosphodiesterase 8A (O60658 whole entry): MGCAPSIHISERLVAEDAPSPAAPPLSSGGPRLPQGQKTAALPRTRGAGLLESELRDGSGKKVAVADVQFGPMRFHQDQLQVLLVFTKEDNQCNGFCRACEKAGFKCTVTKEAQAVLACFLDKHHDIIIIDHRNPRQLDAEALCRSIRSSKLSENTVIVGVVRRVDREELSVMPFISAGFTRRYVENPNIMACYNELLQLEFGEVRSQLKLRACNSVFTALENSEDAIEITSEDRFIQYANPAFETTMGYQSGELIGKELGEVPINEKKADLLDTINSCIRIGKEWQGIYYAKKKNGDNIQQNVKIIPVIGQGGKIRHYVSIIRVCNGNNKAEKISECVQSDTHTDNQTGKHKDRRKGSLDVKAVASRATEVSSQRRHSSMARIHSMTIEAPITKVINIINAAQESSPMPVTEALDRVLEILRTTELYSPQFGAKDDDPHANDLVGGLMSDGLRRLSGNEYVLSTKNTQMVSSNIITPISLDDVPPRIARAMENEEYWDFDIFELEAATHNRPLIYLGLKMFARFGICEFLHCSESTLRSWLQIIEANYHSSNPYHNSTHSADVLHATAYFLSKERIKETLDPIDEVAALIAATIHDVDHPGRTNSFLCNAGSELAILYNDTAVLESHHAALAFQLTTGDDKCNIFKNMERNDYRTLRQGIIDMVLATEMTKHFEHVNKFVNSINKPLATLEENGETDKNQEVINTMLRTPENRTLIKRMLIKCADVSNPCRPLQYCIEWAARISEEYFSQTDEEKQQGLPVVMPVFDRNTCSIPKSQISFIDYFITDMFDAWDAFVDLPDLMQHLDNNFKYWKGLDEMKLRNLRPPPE
Sequence of PI3-kinase p110-alpha/p85-alpha (P27986 whole entry): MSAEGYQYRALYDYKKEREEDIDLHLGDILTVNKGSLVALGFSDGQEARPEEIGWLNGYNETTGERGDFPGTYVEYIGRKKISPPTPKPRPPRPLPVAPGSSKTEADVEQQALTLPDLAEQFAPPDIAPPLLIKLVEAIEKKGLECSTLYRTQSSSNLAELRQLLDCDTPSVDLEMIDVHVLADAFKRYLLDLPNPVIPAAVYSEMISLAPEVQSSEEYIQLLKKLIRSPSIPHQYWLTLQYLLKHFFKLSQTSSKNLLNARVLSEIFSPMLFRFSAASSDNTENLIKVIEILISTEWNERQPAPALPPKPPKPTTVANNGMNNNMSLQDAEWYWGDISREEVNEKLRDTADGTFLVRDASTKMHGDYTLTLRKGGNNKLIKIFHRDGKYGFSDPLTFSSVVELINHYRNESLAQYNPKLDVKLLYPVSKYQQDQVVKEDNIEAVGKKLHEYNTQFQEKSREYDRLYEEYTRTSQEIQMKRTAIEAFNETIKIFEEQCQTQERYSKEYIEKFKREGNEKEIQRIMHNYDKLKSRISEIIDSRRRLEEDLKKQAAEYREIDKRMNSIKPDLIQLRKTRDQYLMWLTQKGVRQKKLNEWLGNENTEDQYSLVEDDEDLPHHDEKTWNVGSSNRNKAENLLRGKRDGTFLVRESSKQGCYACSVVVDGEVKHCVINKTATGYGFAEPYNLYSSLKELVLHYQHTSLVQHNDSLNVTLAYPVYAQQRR
Sequence of PI3-kinase p110-alpha/p85-alpha (P42336 whole entry): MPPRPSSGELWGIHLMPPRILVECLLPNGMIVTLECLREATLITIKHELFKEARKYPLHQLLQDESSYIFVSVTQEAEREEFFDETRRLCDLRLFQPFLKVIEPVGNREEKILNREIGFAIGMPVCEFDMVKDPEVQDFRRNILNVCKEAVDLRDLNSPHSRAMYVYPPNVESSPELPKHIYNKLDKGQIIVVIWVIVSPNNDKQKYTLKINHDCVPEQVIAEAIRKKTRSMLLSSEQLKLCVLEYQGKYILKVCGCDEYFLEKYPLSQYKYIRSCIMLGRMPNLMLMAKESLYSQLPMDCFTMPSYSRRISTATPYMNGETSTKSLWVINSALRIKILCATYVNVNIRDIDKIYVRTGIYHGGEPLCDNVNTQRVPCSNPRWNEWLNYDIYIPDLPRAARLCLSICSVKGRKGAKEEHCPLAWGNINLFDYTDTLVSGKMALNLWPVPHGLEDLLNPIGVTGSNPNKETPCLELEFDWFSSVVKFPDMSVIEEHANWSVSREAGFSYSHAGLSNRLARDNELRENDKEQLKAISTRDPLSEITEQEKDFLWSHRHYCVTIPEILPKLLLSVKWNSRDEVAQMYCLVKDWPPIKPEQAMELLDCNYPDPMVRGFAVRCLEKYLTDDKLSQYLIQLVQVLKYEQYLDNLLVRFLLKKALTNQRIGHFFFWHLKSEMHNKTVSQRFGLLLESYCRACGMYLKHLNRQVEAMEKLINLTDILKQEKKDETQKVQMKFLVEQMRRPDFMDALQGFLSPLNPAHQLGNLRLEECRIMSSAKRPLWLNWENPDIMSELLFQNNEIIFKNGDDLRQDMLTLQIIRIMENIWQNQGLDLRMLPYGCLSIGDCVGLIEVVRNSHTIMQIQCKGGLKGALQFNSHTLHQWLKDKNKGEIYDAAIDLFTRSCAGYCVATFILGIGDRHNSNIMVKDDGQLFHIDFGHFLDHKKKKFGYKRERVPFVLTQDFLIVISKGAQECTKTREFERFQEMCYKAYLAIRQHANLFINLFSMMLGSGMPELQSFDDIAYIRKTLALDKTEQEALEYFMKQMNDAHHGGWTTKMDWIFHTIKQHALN
Sequence of Dual 3',5'-cyclic-AMP and -GMP phosphodiesterase 11A (Q9HCR9 whole entry): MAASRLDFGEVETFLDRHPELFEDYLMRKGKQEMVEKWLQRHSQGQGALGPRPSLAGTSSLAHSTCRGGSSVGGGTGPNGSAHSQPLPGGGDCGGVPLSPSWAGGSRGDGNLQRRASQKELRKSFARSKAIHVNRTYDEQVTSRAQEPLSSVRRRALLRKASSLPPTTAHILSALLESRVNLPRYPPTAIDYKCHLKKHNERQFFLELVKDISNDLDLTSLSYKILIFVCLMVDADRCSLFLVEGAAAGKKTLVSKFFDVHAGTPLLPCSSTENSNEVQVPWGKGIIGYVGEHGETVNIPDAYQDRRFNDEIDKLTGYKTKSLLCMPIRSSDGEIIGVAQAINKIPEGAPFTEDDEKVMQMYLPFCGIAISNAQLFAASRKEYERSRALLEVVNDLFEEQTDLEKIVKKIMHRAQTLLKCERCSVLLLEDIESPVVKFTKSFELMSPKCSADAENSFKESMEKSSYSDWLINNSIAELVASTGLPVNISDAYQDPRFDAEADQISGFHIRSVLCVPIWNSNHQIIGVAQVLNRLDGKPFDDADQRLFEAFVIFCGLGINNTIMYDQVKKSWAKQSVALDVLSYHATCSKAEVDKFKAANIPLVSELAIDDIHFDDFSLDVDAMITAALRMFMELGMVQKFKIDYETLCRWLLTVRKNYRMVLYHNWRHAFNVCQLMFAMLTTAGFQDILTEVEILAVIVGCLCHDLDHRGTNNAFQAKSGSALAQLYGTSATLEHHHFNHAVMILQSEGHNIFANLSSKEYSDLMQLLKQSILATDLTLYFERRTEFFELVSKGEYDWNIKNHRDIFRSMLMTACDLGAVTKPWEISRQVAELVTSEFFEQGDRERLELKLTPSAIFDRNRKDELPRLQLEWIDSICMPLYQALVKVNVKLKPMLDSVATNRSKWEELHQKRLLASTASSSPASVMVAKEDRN

CL [1]: 10 mL/min/kg | fraction unbound [2]: 0.73 | dose excreted at 24 h [3]: 17% | IC50 [4]: > 20 µM | IC50 [5]: 0.27 µM | Vd [7]: 0.9 L/kg | CL [8]: 126 mL/min/kg | fCmax [9]: 46 µM | fAUC [11]: 222 µM·h | fraction unbound [12]: 0.83 | half-life [13]: 1.5 h | clearance [14]: 5.8 mL/min/kg | fAUC [15]: 990 µM·h | IC50 (Phosphodiesterase 3): > 50 µM | IC50 [17]: > 50 µM | clearance [18]: 41 mL/min/kg
Structure (SMILES): CCn1ncc(-c2nc3c(O[C@H]4CCN(C(=O)C5CCOCC5)C4)ncnc3n2C)c1C
Ratio IC50 (Homo sapiens): 69 | Activity [6]: Non-Toxic | Activity [10]: Non-Toxic | Activity (Rattus norvegicus): Non-Toxic | Activity [16]: Non-Toxic
